Test results from patent US6676973B1, “Method of treating ovarian cancers with cadmium” (priority 1995, dated 2004).
pIC50: −log10 of the molar value.

Key:
A2780 cells [1] = test: cellular drug accumulation and efflux at IC50 dose (AAS), A2780; format: cell-based, human; settings: for ASSOCIATED DRUG / PERCENT REMOVED (efflux) / PERCENT ACCUMULATION / DRUG UPTAKE: A2780; for PERCENT ACCUMULATION: IC50 dose; for DRUG UPTAKE: IC50 dose 58 μM
Protocol: (§1) Cells were harvested at time points of 15, 30, 45, and 60 minutes during 1 hour drug exposures, and at 1 and 3 hours after drug exposure. Cells were immediately counted and then wet-ashed. Total cellular drug. accumulation was measured by AAS, and assessed as both nanograms of Cd per million cells (ng Cd/10^6 cells) and as the percentage of the highest levels of total cellular drug.

[2] = test system: liver and lung tumors in B6C3F1 mice; settings: single dose of NDEA followed by cadmium chloride in the drinking water; cited from earlier work
A2780 cells [3] = test: microculture tetrazolium (MTT) cytotoxicity assay, A2780; format: cell-based, human; settings: A2780 cells, 1 hour exposure, MTT
Protocol: (§2) Human ovarian cancer A2780 and A2780/CP70 cells were cultured in monolayer using RPMI 1640 media supplemented with 10% fetal calf serum, 2 mM L-glutamine, 0.2 U insulin/ml, 100 U/ml penicillin, and 100 μg/ml streptomycin (GIBCO, Grands Island, N.Y.). Cells were grown in a humidified chamber containing a mixture of 5% CO2 and ambient air at 37° C. Sensitivity of A2780 and A2780/CP70 cells to Cd and to cisplatin was assessed by microculture tetrazolium (MTT) assay, as described by Alley et al. Briefly, cells were plated at 1000 cells/well in 96-well plates and drug exposure was made the following day. Cadmium dichloride was initially dissolved in double distilled water (Dh2O) at 1.0 mg/ml (5.46 Mm Cadmium), and dilutions from this solution were made in media to obtain the desired drug treatment concentrations of 1 μM, 10 μM, 20 μM, 40 μM, 100 μM, 150 μM and 200 μM. Cisplatin was dissolved in PBS without Ca^++ or Mg^++ at 1.0 mg/ml (3.33 Mm cisplatin), and dilutions from this solution was made in media to obtain the desired drug treatment concentrations of ranging from 1 μM to 300 μM. Drug treatments were for 1 hour.
(§3) After drug treatments, cells were washed twice with PBS without Ca^++ or Mg^++, treated with fresh drug-free media, and incubated for 5 days. On day 5 after drug treatment, 50 microliter of 3-(4,5-dimethylthiazol-2-yl)-2,5 diphenyltetrazolium bromide (MTT) (400 mg in 200 ml of PBS) were added to each well and incubated for 4 hours at 37° C. Analysis of optical density readings were performed using the VV Deltasoft program on a Macintosh computer (Apple, Inc., Palo Alto, Calif.) and percentage cell growth values were obtained.

[4] = test system: cellular DNA of A2780/CP70 cells; test: Cd-DNA adduct formation after 1 hour exposure to a range of Cd doses (AAS), A2780/CP70; format: cell-based, human
Protocol: We examined the formation of Cd-DNA adduct in cellular DNA following 1 hour exposures to a range of Cd drug doses. Cells were grown in T-150 flasks (Costar, Cambridge, Mass.) to 60-80% confluence and then exposed to 0 μM (control), 10 μM, 50 μM, 100 μM and 200 μM Cd for 1 hour. Following a 1 hour drug exposure, cells were washed twice with cold PBS, harvested, and frozen immediately at −20° C. until DNA isolation. Total cellular DNA was isolated on cesium chloride density gradients. DNA was dialyzed against Dh2O with 3-4 changes over 36-48 hours, and quantitated by absorbance at 260 nm. Total Cd per unit DNA was measured by AAS.

[5] = test system: cellular DNA of A2780/CP70 cells; test: Cd-DNA adduct formation and repair after IC50 exposure (AAS), A2780/CP70; format: cell-based, human
Protocol: (§4) We examined the formation and removal of Cd-DNA adduct in cellular DNA following 1 hour drug exposures. […] An aliquot of cells was harvested before drug treatment (time zero). Following a 1 hour drug exposure, cells were washed and harvested at. the following time points: 0 hour (immediately at the end of Cd exposure), 1 hour, 6 hour, and 24 hours. Cells were frozen immediately at −20° C. until DNA isolation. Total cellular DNA was isolated and assayed as described above, and total Cd per unit DNA was measured by AAS.

A2780 cells [6] = test: cellular Cd accumulation after 1 hour exposure to a range of Cd doses (AAS), A2780; format: cell-based, human
Protocol: We examined the cellular Cd accumulation following 1 hour exposures to a range of Cd doses. Cells were grown in T-150 flasks (Costar, Cambridge, Mass.) to 60-80% confluence and then exposed to 10 μM, 50 μM, 100 μM and 200 μM Cd for 1 hour. Cells were harvested, immediately counted and then “wet-ashed” [20]. Total cellular Cd accumulation was measured by atomic absorption spectrometry with Zeeman background correction (AAS), and assessed as nanograms of Cd per million cells (ng Cd/10^6 cells)

[7] = test system: cellular DNA of A2780 cells; test: Cd-DNA adduct formation and repair after IC50 exposure (AAS), A2780; format: cell-based, human
Protocol: as §4

A2780/CP70 cells [8] = format: cell-based, human
Protocol: as §2, §3

A2780/CP70 cells [9] = test: cellular drug accumulation and efflux at IC50 dose (AAS), A2780/CP70; format: cell-based, human; settings: for PERCENT ACCUMULATION: IC50 dose; for DRUG UPTAKE: IC50 dose 128 μM
Protocol: as §1

[10] = 0 hours after 1 hour IC50 exposure
[11] = 1 hour after 1 hour IC50 exposure
[12] = 3 hours after 1 hour IC50 exposure
[13] = 3 hours after 1 hour IC50 exposure, listed as Cadmium
[14] = A2780/CP70 cells, 1 hour exposure, MTT

Structure (SMILES): [Cl][Cd][Cl] [Cd, Cadmium dichloride]
- ASSOCIATED DRUG (A2780 cells [1]; [10]): 20.85 ± 4.4 ng Cd/10^6 Cells
- PERCENT REMOVED (efflux) (A2780 cells [1]; 0 hours after exposure): 90%
- PERCENT ACCUMULATION (A2780 cells [1]; 15 minutes): 33%
- DRUG UPTAKE (A2780 cells [1]; 15 minutes): 6.89 ± 0.53 ng Cd/10^6
- PERCENT ACCUMULATION (A2780 cells [1]; 30 minutes): 47%
- DRUG UPTAKE (A2780 cells [1]; 30 minutes): 9.83 ± 1.06 ng Cd/10^6
- PERCENT ACCUMULATION (A2780 cells [1]; 45 minutes): 60%
- DRUG UPTAKE (A2780 cells [1]; 45 minutes): 12.47 ± 1.95 ng Cd/10^6
- ASSOCIATED DRUG (A2780 cells [1]; [11]): 12.74 ± 3.74 ng Cd/10^6 Cells
- PERCENT REMOVED (efflux) (A2780 cells [1]; 1 hour after exposure): 30%
- PERCENT ACCUMULATION (A2780 cells [1]; 60 minutes): 100%
- DRUG UPTAKE (A2780 cells [1]; 60 minutes): 20.85±4.49 ng Cd/10^6
- DRUG UPTAKE (A2780 cells [1]; 60 minutes, listed as Cadmium): 20.85 ± 4.49 ng Cd/10^6
- ASSOCIATED DRUG (A2780 cells [1]; [12]): 6.56±0.58 ng Cd/10^6 Cells
- ASSOCIATED DRUG (A2780 cells [1]; [13]): 6.56 ± 0.58 ng Cd/10^6 Cells
- PERCENT REMOVED (efflux) (A2780 cells [1]; 3 hours after exposure): 69%
- greater rate of Cd accumulation, A2780 versus A2780/CP70 (A2780 cells [1]; from slopes, respective IC50 doses): 2.8 fold
- incidence and multiplicity of NDEA-induced lung tumors [2]: reduced
- spontaneously-occurring liver tumors [2]: eliminated
- 10% cell kill (A2780 cells [3]): 0.45 µM
- 90% cell kill (A2780 cells [3]): 130 µM
- pIC50 (A2780 cells [3]; read-out: 50% cell kill (IC50)): 4.24
- more DNA damage required in resistant A2780/CP70 cells to induce an equivalent level of cell kill ([4]; FIG. 5B, A2780/CP70 versus A2780): 5-10 lesions per million DNA bases
- more Cd needed in A2780/CP70 to attain the same level of Cd-DNA damage as in A2780 ([4]; from slopes of the equations): 1.7 fold
- Cd-DNA ADDUCT ([5]; 0 hours after 1 hour IC50 (128 μM) exposure, peak): 15.58±3.56 pg Cd/μg DNA
- Cd-DNA ADDUCT ([5]; 0 hours after 1 hour IC50 (128 μM) exposure, peak, listed as Cadmium): 15.58 ± 3.56 pg Cd/μg DNA
- % REPAIR (amount of peak adduct removed) ([5]; 0 hours after IC50 exposure): 0%
- Cd-DNA ADDUCT ([5]; 1 hour after 1 hour IC50 (128 μM) exposure): 13.31 ± 4.62 pg Cd/μg DNA
- % REPAIR (amount of peak adduct removed) ([5]; 1 hour after IC50 exposure): 15%
- Cd-DNA ADDUCT ([5]; 6 hours after 1 hour IC50 (128 μM) exposure): 12.05±3.98 pg Cd/μg DNA
- Cd-DNA ADDUCT ([5]; 6 hours after 1 hour IC50 (128 μM) exposure, listed as Cadmium): 12.05 ± 3.98 pg Cd/μg DNA
- % REPAIR (amount of peak adduct removed) ([5]; 6 hours after IC50 exposure): 23%
- Cd-DNA ADDUCT ([5]; 24 hours after 1 hour IC50 (128 μM) exposure): 8.47±2.85 pg Cd/μg DNA
- Cd-DNA ADDUCT ([5]; 24 hours after 1 hour IC50 (128 μM) exposure, listed as Cadmium): 8.47 ± 2.85 pg Cd/μg DNA
- % REPAIR (amount of peak adduct removed) ([5]; 24 hours after IC50 exposure): 46%
- slope of linear regression, cellular Cd versus Cd dose (A2780 cells [6]; A2780 cells, 1 hour exposure, up to 200 μM): 0.024
- more cellular drug accumulated per unit dose, A2780 versus A2780/CP70 (A2780 cells [6]; from slopes of linear regression): 4.9 fold
- Cd-DNA ADDUCT ([7]; 0 hours after 1 hour IC50 (58 μM) exposure): 8.45 ± 3.59 pg Cd/μg DNA
- % REPAIR (amount of peak adduct removed) ([7]; 0 hours after IC50 exposure): 0%
- Cd-DNA ADDUCT ([7]; 1 hour after 1 hour IC50 (58 μM) exposure, peak): 11.81±6.59 pg Cd/μg DNA
- Cd-DNA ADDUCT ([7]; 1 hour after 1 hour IC50 (58 μM) exposure, peak, listed as Cadmium): 11.81 ± 6.59 pg Cd/μg DNA
- % REPAIR (amount of peak adduct removed) ([7]; 1 hour after IC50 exposure): no removal
- % REPAIR (amount of peak adduct removed) ([7]; 1 hour after IC50 exposure, listed as Cadmium): 0%
- Cd-DNA ADDUCT ([7]; 6 hours after 1 hour IC50 (58 μM) exposure): 7.08±3.92 pg Cd/μg DNA
- Cd-DNA ADDUCT ([7]; 6 hours after 1 hour IC50 (58 μM) exposure, listed as Cadmium): 7.08 ± 3.92 pg Cd/μg DNA
- % REPAIR (amount of peak adduct removed) ([7]; 6 hours after IC50 exposure): 40%
- Cd-DNA ADDUCT ([7]; 24 hours after 1 hour IC50 (58 μM) exposure): 5.28±3.11 pg Cd/μg DNA
- Cd-DNA ADDUCT ([7]; 24 hours after 1 hour IC50 (58 μM) exposure, listed as Cadmium): 5.28 ± 3.11 pg Cd/μg DNA
- % REPAIR (amount of peak adduct removed) ([7]; 24 hours after IC50 exposure): 55%
- 10% cell kill (A2780/CP70 cells [8]; [14]): 28 µM
- 90% cell kill (A2780/CP70 cells [8]; [14]): 195 µM
- pIC50 (A2780/CP70 cells [8]; A2780/CP70 cells, 1 hour exposure, MTT, read-out: 50% cell kill (IC50)): 3.89
- level of cross-resistance of A2780/CP70 cells to Cd (A2780/CP70 cells [8]; compared with 10-fold resistance to cisplatin): approximately equal level
- A2780/CP70 cells more sensitive to Cd (than to cisplatin) (A2780/CP70 cells [8]; on a μM basis, 50% cell kill): 1.25 fold
- ASSOCIATED DRUG (A2780/CP70 cells [9]; [10]): 6.61 ± 1.4 ng Cd/10^6 Cells
- PERCENT REMOVED (efflux) (A2780/CP70 cells [9]; 0 hours after exposure): 80%
- PERCENT ACCUMULATION (A2780/CP70 cells [9]; 15 minutes): 10%
- DRUG UPTAKE (A2780/CP70 cells [9]; 15 minutes): 0.65 ± 0.16 ng Cd/10^6
- PERCENT ACCUMULATION (A2780/CP70 cells [9]; 30 minutes): 46%
- DRUG UPTAKE (A2780/CP70 cells [9]; 30 minutes): 3.03 ± 1.11 ng Cd/10^6
- PERCENT ACCUMULATION (A2780/CP70 cells [9]; 45 minutes): 66%
- DRUG UPTAKE (A2780/CP70 cells [9]; 45 minutes): 4.33 ± 2.02 ng Cd/10^6
- ASSOCIATED DRUG (A2780/CP70 cells [9]; [11]): 4.08 ± 1.4 ng Cd/10^6 Cells
- PERCENT REMOVED (efflux) (A2780/CP70 cells [9]; 1 hour after exposure): 38%
- PERCENT ACCUMULATION (A2780/CP70 cells [9]; 60 minutes): 100%
- DRUG UPTAKE (A2780/CP70 cells [9]; 60 minutes): 6.61±1.48 ng Cd/10^6
- DRUG UPTAKE (A2780/CP70 cells [9]; 60 minutes, listed as Cadmium): 6.61 ± 1.48 ng Cd/10^6
- ASSOCIATED DRUG (A2780/CP70 cells [9]; [12]): 2.08±0.92 ng Cd/10^6 Cells
- ASSOCIATED DRUG (A2780/CP70 cells [9]; [13]): 2.08 ± 0.92 ng Cd/10^6 Cells
- PERCENT REMOVED (efflux) (A2780/CP70 cells [9]; 3 hours after exposure): 69%
